Reference: ChEMBL document CHEMBL1275606, “Novel chromosome-encoded CTX-M-78 beta-lactamase from a Kluyvera georgiana clinical isolate as a putative origin of CTX-M-25 subgroup” (2010)
≈ marks a conversion by molar mass, not a printed value.

What was measured:
Assay type in all cases: functional
Kluyvera georgiana [1] = assay: Antimicrobial activity against Kluyvera georgiana 14751 expressing beta-lactamase CTX-M-78 obtained from bloodstream of patient by […]
Kluyvera georgiana [2] = assay: Antimicrobial activity against Kluyvera georgiana 14751 expressing beta-lactamase CTX-M-78 obtained from bloodstream of patient by […] in presence of beta-lactamase inhibitor clavulanic acid
Escherichia coli [3] = assay: Antimicrobial activity against Escherichia coli TOP10F' transformant harboring beta-lactamase CTX-M-78 by […]
Escherichia coli [4] = assay: Antimicrobial activity against Escherichia coli TOP10F' by […]

With `CC1(C)S[C@@H]2[C@H](NC(=O)[C@H](N)c3ccccc3)C(=O)N2[C@H]1C(=O)O` [AMPICILLIN] the MIC (Kluyvera georgiana [1]) was 256 µg/mL (≈ 733 µM), the MIC (Kluyvera georgiana [2]) was 4 µg/mL and the MIC (Escherichia coli [3]) was 256 µg/mL (≈ 733 µM).

For `C[C@H]1[C@H](NC(=O)/C(=N\OC(C)(C)C(=O)O)c2csc(N)n2)C(=O)N1S(=O)(=O)O` [AZTREONAM], the MIC (Kluyvera georgiana [1]) was no more than 0.016 µg/mL and the MIC (Escherichia coli [3]) was 0.5 µg/mL (≈ 1.15 µM).

In the case of `CO/N=C(\C(=O)N[C@@H]1C(=O)N2C(C(=O)[O-])=C(C[N+]3(C)CCCC3)CS[C@H]12)c1csc(N)n1` [CEFEPIME], the MIC (Kluyvera georgiana [1]) is reported as 0.032 µg/mL (≈ 0.0666 µM), the MIC (Escherichia coli [4]) is reported as 0.016 µg/mL (≈ 0.0333 µM) and the MIC (Escherichia coli [3]) is reported as 0.5 µg/mL (≈ 1.04 µM).

With `CO/N=C(\C(=O)N[C@@H]1C(=O)N2C(C(=O)O)=C(COC(C)=O)CS[C@H]12)c1csc(N)n1` [CEFOTAXIME] the MIC (Kluyvera georgiana [1]) was 0.032 µg/mL (≈ 0.0703 µM), the MIC (Escherichia coli [4]) was no more than 0.016 µg/mL and the MIC (Escherichia coli [3]) was 1 µg/mL (≈ 2.2 µM).

`CO[C@@]1(NC(=O)Cc2cccs2)C(=O)N2C(C(=O)O)=C(COC(N)=O)CS[C@@H]21` [CEFOXITIN] showed an MIC (Kluyvera georgiana [1]) of 1 µg/mL (≈ 2.34 µM), an MIC (Escherichia coli [4]) of 2 µg/mL (≈ 4.68 µM) and an MIC (Escherichia coli [3]) of 2 µg/mL (≈ 4.68 µM).

`CC(C)(O/N=C(\C(=O)N[C@@H]1C(=O)N2C(C(=O)[O-])=C(C[n+]3ccccc3)CS[C@H]12)c1csc(N)n1)C(=O)O` [CEFTAZIDIME] gave an MIC (Kluyvera georgiana [1]) of 0.063 µg/mL (≈ 0.115 µM), an MIC (Escherichia coli [4]) of 0.125 µg/mL (≈ 0.229 µM) and an MIC (Escherichia coli [3]) of 0.25 µg/mL (≈ 0.457 µM).

Work on `CC(=O)OCC1=C(C(=O)O)N2C(=O)[C@@H](NC(=O)Cc3cccs3)[C@H]2SC1` [CEPHALOTHIN] yielded an MIC (Kluyvera georgiana [1]) of 8 µg/mL (≈ 20.2 µM), an MIC (Escherichia coli [4]) of 2 µg/mL (≈ 5.04 µM) and an MIC (Escherichia coli [3]) of 256 µg/mL (≈ 646 µM).

`NC[C@H]1O[C@H](O[C@H]2[C@H](O)[C@@H](O[C@H]3O[C@H](CO)[C@@H](O)[C@H](N)[C@H]3O)[C@H](N)C[C@@H]2N)[C@H](O)[C@@H](O)[C@@H]1O` [KANAMYCIN] showed an MIC (Kluyvera georgiana [1]) of 16 µg/mL (≈ 33 µM), an MIC (Escherichia coli [4]) of 1 µg/mL (≈ 2.06 µM) and an MIC (Escherichia coli [3]) of 256 µg/mL (≈ 528 µM).

Work on `CCn1cc(C(=O)O)c(=O)c2ccc(C)nc21` [NALIDIXIC ACID] yielded an MIC (Kluyvera georgiana [1]) of 128 µg/mL (≈ 551 µM) and an MIC (Escherichia coli [3]) of 2 µg/mL (≈ 8.61 µM).

`CN(C)[C@@H]1C(O)=C(C(N)=O)C(=O)[C@@]2(O)C(O)=C3C(=O)c4c(O)cccc4[C@@](C)(O)[C@H]3C[C@@H]12` [TETRACYCLINE] gave an MIC (Kluyvera georgiana [1]) of no more than 0.5 µg/mL and an MIC (Escherichia coli [3]) of 256 µg/mL (≈ 576 µM).

GENTAMICIN gave an MIC (Kluyvera georgiana [1]) of 64 µg/mL and an MIC (Escherichia coli [3]) of less than 0.5 µg/mL.
